# In patent publication US6372727B1, “Metalloporphyrin treatment of neurologic disease” (UAB Research Foundation, priority 1999, dated 2002):
# Values joined by “and” are separate entries in the source; they are usually repeats but may differ in a detail not shown here. Equal entries are not always repeated.
# Key:
# [1] = MP-catalyzed peroxynitrite decomposition monitored at 302 nm; type: biochemical; settings: 100 μM peroxynitrite
# Description: Peroxynitrite (100 μM) was added to rapidly stirred cuvettes at 37° C. containing the indicated concentrations of MPs in 0.1 M potassium phosphate, pH 7.4. Ascorbate was added to 150 μM where indicated. Peroxynitrite decomposition was monitored at 302 nm using a Hewlett-Packard diode-array spectrophotometer. Apparent rates (kapparents^−1, average of n=3) were plotted versus MP concentration to determine rate constants in M^−1s^−1.
# Reactions contained the indicated concentration of FeTCPPin 1.4 ml of 0.1 M potassium phosphate, pH 7.4 in the absence or presence to 150 μM ascorbic acid. Peroxynitrite (100 μM) was added to rapidly stirred cuvettes at 37° C. and the decay of peroxynitrite was monitored continuously at 302 nm. Decay data were fitted to the equation describing first order decay to obtain apparent decay rates (kapparent sec^−1). Apparent decay rates as a function of FeTCPP were fitted by linear regression and the rate constant was obtained slope of the line.
# Peroxynitrite (100 μM) decomposition was determined at 302 nm using a Hewlett-Packard diode-array spectrophotometer fitted with a temperature-controlled cuvette chamber and a water-driven cuvette stirrer. Bolus additions of peroxynitrite were made to vigorously stirred cuvettes containing varying concentrations of MPs (see Table III) while data were collected at a rate of ten points/sec. […] Each reaction was repeated three times and only the first additions of peroxynitrite were averaged. Data were exported for fitting and plotting. Apparent rates of peroxynitrite decomposition were plotted as a function of metalloporphyrin concentration (as shown in FIG. 5) to determine concentration-independent rate constants at 37° C.
# Rates of peroxynitrite (100 μM) decomposition were determined at different MP concentrations. Ascorbate was added to 150 μM where indicated. […] Apparent rate constants were plotted versus MP concentration (as in FIG. 5A,B) to determine true rate constants in M^−1s^−1±standard error.
# [2] = Ascorbate oxidation by MPs monitored at 266 nm; type: biochemical; settings: MP 10 μM, 50 μM ascorbate, 0.1 M potassium phosphate pH 7.4, ± standard error, n=3
# Description: In order to test the hypothesis that Mn(II)- or Fe(II)-porphyrins would be capable of carrying out two-electron reductions of peroxynitrite and thereby decreasing rather than increasing its reactivity, attempts were made to pre-reduce these transition metal-containing MPs prior to addition of peroxynitrite.
# Table V. Ascorbate oxidation by MPs. MPs (10 μM) were added to stirred cuvettes containing 0.1 M potassium phosphate, pH 7.4 and 50 μM ascorbate. Ascorbate oxidation was monitored at 266 nm (ηm=17,700 M^−1cm^−1). Oxidation rates (±standard errors) were determined by fitting the initial linear portion of each curve and averaging the rates (n=3).
# [3] = Oxidation of metalloporphyrins by peroxynitrite, stopped-flow spectroscopy; type: biochemical; settings: 37° C., 0.1 M potassium phosphate pH 7.4, pseudo-first order, ± standard error
# Description: Peroxynitrite (in 10 mM NaOH) was rapidly mixed with the indicated MPs in 0.1 M potassium phosphate, pH 7.4 at 37° C. using a stopped-flow apparatus as described in Methods. […] A final concentration of 40 μM peroxynitrite was added to 8 μM of each of the MPs MnTBAP, MnPPIX, and FePPIX. […] INSET: Apparent rate constants for oxidation of 8 μM MnTBAP are plotted as a function of peroxynitrite concentration to illustrate how the rate constants listed in Table III were determined.
# Rates of metal loporphyrin oxidation by peroxynitrite were determined using a Bio Sequential SX-18MV Applied Photophysics stopped-flow spectrofluorometer. Solutions of metalloporphyrins in 0.1 M potassium phosphate buffer, pH 7.4 were placed in one syringe and solutions of peroxynitrite in 10 mM NaOH were placed in a second syringe, both of which were submerged in a water bath at 37° C. Changes in metalloporphyrin absorbance as a function of time were recorded following triggering of syringe firing and solution mixing (instrument dead time=2 msec); a total of 1000 data points were collected over intervals ranging from 50 msec to 3 sec. […] Because the absorbance changes associated with loss of +3 forms were greater, rates of metalloporphyrin oxidation were determined by monitoring the disappearance of Mn(III)TMPyP at 462 nm, Mn(III)TBAP at 468 nm, Mn(III)PPIX at 466 nm, and Fe(III)PPIX at 464 nm. Absorbance changes as a function of time were fitted to the equation describing a first order process. The concentration of peroxynitrite was varied from five-fold to forty-fold greater than the fixed metalloporphyrin concentration in order to obtained pseudo first-order conditions (see Table III). Each concentration was injected 10 times and data were averaged automatically prior to fitting.
# Rate constants for stoichiometric metalloporphyrin oxidation by peroxynitrite at 37° C. were determined under pseudo-first order reaction conditions by varying the amount of peroxynitrite added to a fixed concentration of metalloporphyrin (Table III).
# In Table III, the rate of peroxynitrite-mediated oxidation of metalloporphyrins at 37° C. was determined. Apparent rate constants were determined by stopped-flow spectroscopy and plotted versus the peroxynitrite concentration (as shown for MnTBAP in FIG. 4 inset) to determine the bimolecular rate constant in M^−1s^−1±standard error. FePPIX was monitored at 387 nm, MnPPIX at 464 nm, and MnTBAP at 470 nm.
# [4] = 100 μM DCDHF, pH 7.4, 37° C.
# Description: A 14.5 mM stock solution of 2,7-dichlorodihydrofluorescein was prepared as described (24). Reaction solutions were prepared in rapidly stirred glass cuvettes and contained 100 μM of DCDHF and 2 μM of the indicated MP in 1.4 ml of 0.1 M potassium phosphate, pH 7.4 at 37° C. Peroxynitrite was added sequentially to rapidly stirred cuvettes; three seperate additions of 2 μM peroxynitrite were made followed by three seperate additions of 4 μM each (see Inset). DCDHF oxidation to dichlorofluorescein (DCF) was monitored at 500 nm (59,500 M^−1cm^−1) (24). Oxidative efficiency was defined as the moles of DCF formed per mole of peroxynitrite added and was determined for each peroxynitrite addition. The values shown represent the average of all six additions.
# Dichlorodihydrofluorescein (DCDHF) undergoes a two-electron oxidation to yield the highly absorbing (and fluorescent) product dichlorofluorescein (DCF). DCDHF has been shown previously to be oxidized at an efficiency as high as 38% of added peroxynitrite (24) and was used here as an indicator to detect any changes in the total oxidative yield of peroxynitrite caused by metalloporphyrins.
"oxidation by H2O2 (0.5 mM H2O2, 20 min)",Compound,"Rate Constants for MP-Catalyzed Decomposition of Peroxynitrite (pH 7.4, 37° C.) ([1]; absence of added reductants)",Rate of Ascorbate Oxidation [2],Rate Constants for Oxidation of MPs by Peroxynitrite [3],"Rate Constants for MP-Catalyzed Decomposition of Peroxynitrite (pH 7.4, 37° C.) ([1]; plus ascorbate 150 μM)",increase of total oxidant yield from peroxynitrite [4],"oxidant yield, of added peroxynitrite [4]",effect of HOCl on the MP (50 μM HOCl)
–,"O=C(O)c1ccc(-c2c3nc(c(-c4ccc(C(=O)O)cc4)c4ccc([n-]4)c(-c4ccc(C(=O)O)cc4)c4nc(c(-c5ccc(C(=O)O)cc5)c5ccc2[n-]5)C=C4)C=C3)cc1.[Fe+2] [FeTCPP, Iron (III) meso 5,10,15,20-tetrakis-(4-carboxy-phenyl) porphyrin]",1.6×10^6 M^−1s^−1 and 2.9 × 10^6 M^−1s^−1 ± 0.4 M^−1s^−1,5.8 µM/min,–,–,–,–,–
did not appear to oxidize,"C[n+]1ccc(-c2c3nc(c(-c4cc[n+](C)cc4)c4ccc([n-]4)c(-c4cc[n+](C)cc4)c4nc(c(-c5cc[n+](C)cc5)c5ccc2[n-]5)C=C4)C=C3)cc1.[Cl-].[Cl-].[Cl-].[Cl-].[Cl-].[Mn+3] [MnTMPyP, Manganese (III) meso-tetra-(N-methyl-4-pyridyl)-porphine chloride]",–,6.77 ± 0.33 µM/min,3.6e+06 M⁻¹ s⁻¹,1.8 × 10^6 ± 0.3 M^−1s^−1,2.2 fold,83%,appeared to destroy the metal-pyrrole center
